One series has as its target T1, CXCR4 (Homo sapiens, UniProt P61073).
T1 construct: endogenous in cells; host or cells: MDA-MB-231
The series can be described thus: Primary binding affinity screening (competition with biotinylated TN14003). The protocol: The compounds were initially screened with a binding affinity assay. […] MDA-MB-231 cells were pre-incubated with compounds at concentrations of 1, 10, 100, and 1000 nM, then incubated with biotinylated TN14003 and streptavidin-conjugated rhodamine to determine the binding efficiency of the new compounds to the CXCL12 binding domain of CXCR4. […] Thus, this screening is a semi-quantitative, first pass measure of the level of activity.
For binding affinity assay, 2×10^4 MDA-MB-231 cells in 300 μL of cell culture medium were seeded in an 8-well slide chamber 2 days before the experiments were conducted. Various concentrations of different compounds (1, 10, 100, or 1000 nM) were added to the separate wells and incubated for 10 min at room temperature, and then the cells were fixed in 4% ice-cold paraformaldehyde. The cells were rehydrated in phosphate-buffered saline (PBS). The slides were subsequently incubated for 30 min at room temperature with 0.05 μg/mL biotinylated TN14003, washed three times with PBS, and incubated in streptavidin-rhodamine (1:150 dilution; Jackson ImmunoResearch Laboratories, West Grove, Pa.) for 30 min at room temperature. Finally, the slides were washed with PBS and mounted in an anti-fade mounting solution (Molecular Probes, Eugene, Oreg.), and the samples were analyzed on a Nikon Eclipse E800 microscope.

For series [1], the system named is carrageenan-induced mouse paw edema. The series can be described thus: In vivo suppression against carrageenan-induced paw edema. Particulars: for inflammation-suppression percentage (paw edema): female C57BL/6J mice, 74 h after carrageenan challenge; for Carageenan: Table 3, mice dosed 10 mg of compound per kg. On the procedure:
CXCR4 plays a role in the recruitment of inflammatory cells to sites of inflammation. Blocking CXCR4 is a therapeutic strategy in inflammatory diseases. A carrageenan-induced mouse paw edema model as an efficient model to evaluate the in vivo CXCR4 antagonistic activity for CXCR4 inhibitors.
Acute inflammation was induced by subcutaneous injection of 50 μL of λ-carrageenan (1% w/v in saline) into one of the hind paws of the female C57BL/6J mice (Jackson Laboratories); the other hind paw was injected with 50 μL of saline, which was used as a non-inflammation control. The selected compounds were dissolved in 10% DMSO and 90% of 45% (2-hydroxypropyl)-β-cyclodextrin (CD) in PBS. In the treatment group, compounds IIg, IIk, IIm and IIn were administered intraperitoneally (i.p.) at 10 mg/kg daily, while TN14003 was administered at 300 μg/kg, i.p., daily, 30 min following carrageenan challenge. The rationale for using 300 μg/kg for TN14003 was that this concentration was reported to be the minimum concentration needed to achieve the maximum efficacy of this compound in a […] metastasis animal model. See Yoon et al. CXC chemokine receptor-4 antagonist blocks both growth of primary tumor and metastasis of head and neck cancer in xenograft mouse models. Cancer Res., 67 (2007), pp. 7518-7524. Control animals received corresponding i.p. injections of the vehicle. The animals were sacrificed 74 h after carrageenan challenge and 2 h after the last injection of the selected compounds. The final paws were photographed and measured for thickness from the “palm” to the back of the paw with a caliper. These were compared to the volume of carrageenan-untreated contralateral paw to obtain the edema volume; the volume of the contralateral paw was subtracted from the volume of the carrageenan injected paw to obtain the edema volume. The inflammation-suppression percentage was calculated by comparing the drug-treated group to the control group.
In general terms: Carrageenan injected into the paw causes an acute inflammation.

Series [2] shares this test system. The description is as above. As to conditions: 10 mg/kg i.p. daily; paw tissue histology.
Series [3] has as its system CXCR4/CXCL12-mediated chemotaxis and invasion. Nature of the series: Matrigel invasion assay. It is filed as cell-based. Particulars: for inhibition at 0.1 µM: single concentration of 100 nM, CXCL12 as chemoattractant, FIG. 2, read-out: inhibitory rate, Matrigel invasion; for Invasion: Table 3, concentration used 100 nM. The source says: To model in vitro metastasis, a Matrigel® invasion assay was used as the functional assay. […] A layer of Matrigel® matrix-coated permeable support (8 μm pore diameter) separates the upper and lower chambers.

Setting [4] is: effective concentration = lowest concentration with significant reduction of rhodamine fluorescence, MDA-MB-231 cells, tested at 1, 10, 100, 1000 nM.

Where only a bound is given, the exact number is not on record here.

T1 sequence (P61073 whole entry): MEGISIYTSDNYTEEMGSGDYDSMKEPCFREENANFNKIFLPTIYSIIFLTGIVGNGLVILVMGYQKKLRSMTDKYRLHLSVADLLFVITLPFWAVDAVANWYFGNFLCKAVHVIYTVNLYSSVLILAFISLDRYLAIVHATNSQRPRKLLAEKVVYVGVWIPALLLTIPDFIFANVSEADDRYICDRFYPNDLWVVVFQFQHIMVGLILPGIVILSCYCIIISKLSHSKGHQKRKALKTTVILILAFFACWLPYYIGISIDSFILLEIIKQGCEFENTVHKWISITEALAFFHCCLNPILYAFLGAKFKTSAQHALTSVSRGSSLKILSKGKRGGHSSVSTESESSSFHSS

One may read the melting point as the temperature of the solid-liquid transition. For the compound `CN(Cc1ccc(F)cc1)Cc1ccc(CN(C)Cc2ccc(F)cc2)cc1` [Ij, N,N′-(1,4-Phenylenebis(methylene))bis(1-(4-fluorophenyl)-N-methylmethanamine)], the melting point fell in the range of 80 to 82 °C. Besides, on CXCR4 (setting [4]), the EC was over 1000 nM.
As to `CN(Cc1ccccn1)Cc1cccc(CN(C)Cc2ccccn2)n1` [IIn, N,N′-(Pyridine-2,6-diylbis(methylene))bis(N-methyl-1-(pyridin-2-yl)methanamine)], the “inflammation-suppression percentage (paw edema)” value in series [1] (10 mg/kg i.p. daily) is given as 50%. The EC on CXCR4 (setting [4]) worked out at 10 nM. Also, the “mouse paw inflammation and damage in histological assay” value in series [2] is reported as “significantly attenuated”. Further, in series [3], the inhibition at 0.1 µM came out at 72.6%.
In the case of `CCc1ccccc1NCc1cccc(CNc2ccccc2CC)n1` [2,6-Bis(2-ethylanilinomethyl)pyridine], the Carageenan in series [1] is 18.1%. Also, the EC at CXCR4 (Table 3) came to 1 nM. For the same compound, in series [3], the Invasion is recorded as 59%.
`CN(Cc1ccc(CN(C)c2ccccc2)cc1)c1ccccc1` [Id, N,N′-(1,4-Phenylenebis(methylene))bis(N-methylaniline)] came in with a melting point of 77 to 79 °C. For the same compound, the EC at CXCR4 (setting [4]) came out at 1000 nM.
In turn, `c1ccc(NCc2ccc(CNc3ccccn3)cc2)nc1` [WZ811, reference compound] showed a Carageenan in series [1] of 40%. Further, the EC on CXCR4 (Table 3) is listed as 10 nM. The compound further gave an Invasion in series [3] of 90%.
In turn, `CN(Cc1cccc(CN(C)c2ccccc2)n1)c1ccccc1` [IId, N,N′-(Pyridine-2,6-diylbis(methylene))bis(N-methylaniline)] yielded a melting point of 91 to 93 °C. For the same compound, on CXCR4 (setting [4]), the EC is on record as 1000 nM.
For the compound `CCc1ccc(NCc2cccc(CNc3ccc(CC)cc3)n2)cc1` [2,6-Bis(4-ethylanilinomethyl)pyridine], in series [1], the Carageenan worked out at 42.0%. On CXCR4 (Table 3), this compound had an EC of 1 nM. Besides, in series [3], the Invasion came to 64%.
For `COc1cccc(CN(C)Cc2cccc(CN(C)Cc3cccc(OC)c3)n2)c1` [IIk, N,N′-(Pyridine-2,6-diylbis(methylene))bis(1-(3-methoxyphenyl)-N-methylmethanamine)], the “inflammation-suppression percentage (paw edema)” value in series [1] (10 mg/kg i.p. daily) is listed as 31.0%. Moreover, on CXCR4 (setting [4]), the EC is listed as 10 nM. In series [3], the inhibition at 0.1 µM is 76.7%.
Take `COc1cccc(NCc2cccc(CNc3cccc(OC)c3)n2)c1` [2,6-Bis(3-methoxyanilinomethyl)pyridine]: the Carageenan in series [1] is 20.1%. At CXCR4 (Table 3), this compound yielded an EC of 100 nM. In series [3], this compound gave an Invasion of 37%.
On to `CN(Cc1ccc(CN(C)c2ccc(F)cc2)cc1)c1ccc(F)cc1` [Ie, N,N′-(1,4-phenylenebis(methylene))bis(4-fluoro-N-methylaniline)], for which the melting point lay within 78 to 80 °C. The compound also returned an EC at CXCR4 (setting [4]) of 100 nM. Further, the inhibition at 0.1 µM in series [3] amounted to 66.4%.
`c1cc(CN2CCOCC2)ccc1CN1CCOCC1` [Ic, 1,4-Bis(morpholinomethyl)benzene] gave a melting point of 113 to 115 °C. For the same compound, on CXCR4 (setting [4]), the EC was over 1000 nM.
As for `c1cc(CN2CCOCC2)nc(CN2CCOCC2)c1` [2,6-Bis(morpholinylmethyl)pyridine], in series [1], the Carageenan is listed as 39.1%. The compound also registered an EC on CXCR4 (Table 3) of 10 nM. In series [3], this compound returned an Invasion of 63%.
In the same order, the values of `FC(F)(F)c1ccc(NCc2cccc(CNc3ccc(C(F)(F)F)cc3)n2)cc1` [2,6-Bis(4-trifluoromethylanilinomethyl)pyridine] are 20.3%, 1 nM and 52%.
Compound `Fc1cccc(NCc2cccc(CNc3cccc(F)c3)n2)c1` [2,6-Bis(3-fluoroanilinomethyl)pyridine] registered a Carageenan in series [1] of 20.3%. For the same compound, the EC on CXCR4 (Table 3) was 10 nM. The Invasion in series [3] was 50%.
Compound `c1cc(CN2CCCCC2)ccc1CN1CCCCC1` [Ib, 1,4-Bis(piperidin-1-ylmethyl)benzene] gave a melting point of 84 to 86 °C. Besides, the EC on CXCR4 (setting [4]) turned out to be 10 nM. The inhibition at 0.1 µM in series [3] was under 50%.
With TN14003 [reference compound], the “inflammation-suppression percentage (paw edema)” value in series [1] (300 μg/kg i.p. daily) is recorded as 48%.

The values are drawn from patent US10709697B2, “Bis-amines, compositions, and uses related to CXCR4 inhibition” (Emory University, priority 2015, dated 2020).
